{"source": "paper PMC9586926", "about": "“An efflux-susceptible antibiotic-adjuvant with systemic efficacy against mouse infections” (Scientific Reports, 2022)", "key": {"E. coli 25922 [1]": {"tested_on": "E. coli 25922", "format": "cell-based, Escherichia coli", "method": "(§1) MIC was determined according to the broth microdilution method: antimicrobials were subjected to serial twofold dilutions in LB medium, and incubated with 5 × 10^5 CFU/ml of bacteria (final volume of 200 µl) for 18–24 h at 37 °C. Then, O.D.620 nm was measured (BioTek Instruments Synergy HT; Winooski, VT, USA), and the MIC was defined as the lowest antimicrobial concentration for which no increase in O.D.620 nm was evident, compared to the untreated control.\nLipopeptides and antibiotics combinations were assessed using a modified version of the checkerboard titration method: Antibiotics MIC was determined in LB medium containing sub-inhibitory lipopeptide concentrations. The sensitization factor (SF)[46] was then calculated by SF = MICA/MICC, where “MICA” is the antibiotic MIC in absence of an adjuvant and “MICC “ is the antibiotic MIC in presence of an adjuvant, for a specified adjuvant concentration. Combinations were classified as synergistic when antibiotics MIC were decreased by > 4 folds. Alternatively, the fractional inhibitory concentration index (FICI) was calculated by FICI = MICC1/MICA1 + MICC2/MICA2, where “MICC1” and “MICC2” respectively specify the antibiotic and the adjuvant MIC values upon their combination, whereas “MICA1” and “MICA2” respectively specify the antibiotic and the adjuvant MIC values when tested individually. Combinations were classified as synergistic for FICI < 0.5."}, "E. coli 25922 [2]": {"tested_on": "E. coli 25922", "test": "Peritonitis-sepsis infection model in neutropenic mice", "format": "in vivo", "settings": "n = 10", "method": "(§2) The study is reported in accordance with ARRIVE guidelines.\n(§3) Lipopeptides potential application in monotherapy and/or combination-therapies was explored with two infection models. In the peritonitis-sepsis model, mice (n = 10 per group) were first rendered neutropenic by two intraperitoneal (I.P.) injections of 0.3 ml containing 150 mg/kg and 100 mg/kg cyclophosphamide, administered 4 days and 1 day before the experiment, respectively. […] Mice survival was recorded for up to 7 days. In a variant assay, bacteria in PBS (1.4 × 10^6) were pre-treated with 10 µM lipopeptides for 15 min, similarly administered, and mice survival was recorded for up to 3 days. In the urinary-tract infection (UTI) model, mice (N = 5 mice per group) were anesthetized by a single I.P. injection (0.2 ml) containing a mixture of ketamine (100 mg/kg) and xylazine (5 mg/kg). Following application of an analgesic 2% lidocaine gel on their penises, mice were infected intra-urethraly using a 24-gauge catheter with 1.2 × 10^8 CFU/mouse (0.05 ml) and treated with the vehicle control (S.C., 1 h post-infection), 2 mg/kg rifampin (oral gavage, immediately before anesthesia), 7.5 mg/kg q.i.d. lipopeptides (S.C., starting 1 h post-infection), or both. Mice were sacrificed 24 h post-infection, their bladder and kidneys aseptically excised, suspended in 5 ml of sterile PBS, homogenized for 3 min using a bench-top homogenizer, serially tenfold diluted in saline, plated on LB agar, and incubated over-night at 37 °C for enumeration."}, "UPEC CFT073": {"tested_on": "UPEC CFT073", "test": "Urinary-tract infection model", "format": "in vivo, mice", "method": "as §2, §3"}, "K. pneumoniae": {"tested_on": "K. pneumoniae", "test": "MIC, broth microdilution", "format": "cell-based, Klebsiella pneumoniae", "settings": "broth microdilution in LB, 18–24 h, 37 °C; n = 2 strains", "description": "Bacteria used in this study consisted of standard American Type Culture Collection (ATCC; Biological Industries, Beit Haemek, Israel) strains, clinically isolated (CI; Sourasky Medical Center, Tel Aviv, Israel) strains, as well as isogenic mutant strains. Gram-negative bacteria included Acinetobacter baumannii ATCC 19606; Escherichia coli ATCC 25922, 35218, CFT073, CI 14384, 16327, and the isogenic pair Ag100 (wild-type) and its efflux deficient mutant Ag100a (ΔacrAB); Klebsiella pneumoniae CI 1287, 224; Pseudomonas aeruginosa ATCC 27853, CI 1278, 8634; Salmonella enterica serovar Typhimurium ATCC 14028 (wild-type) and its isogenic efflux deficient mutant ΔacrAB. Bacteria were grown in Luria–Bertani broth (LB; 5 g/l NaCl, 5 g/l yeast extract, 10 g/l tryptone; pH = 7.0) at 37 °C with shaking. Over-night cultures were diluted 10-folds into fresh growth-medium and incubated at 37 °C with shaking until reaching mid-logarithmic phase. Then, bacterial concentrations were adjusted using O.D.600 nm measurements, and bacteria were subjected to the experimental procedures listed herein.\nas §1"}, "HEK-293FT": {"tested_on": "HEK-293FT", "test": "Cytotoxicity, Alamar blue", "format": "cell-based, human", "settings": "24 h incubation, read-out: IC50 HEK-293FT (50% inhibition of cells respiration)", "method": "Cell lines used in this study included murine RAW 264.7 macrophages and human embryonic kidney HEK-293FT cells (ATCC, Biological Industries, Beit Haemek, Israel). Cells were grown in Dulbecco’s modified eagle medium (DMEM) containing […] glucose, L-glutamine, sodium bicarbonate and sodium pyruvate, supplemented with 10% fetal bovine serum and pen-strep, at 37 °C and 5% CO2.\nLipopeptides cytotoxicity was determined using fluorescent measurements of reduced resazurin. 2 × 10^4 cells were first cultured in 96-well plates over-night (final volume of 100 µl) at 37 °C and 5% CO2. Then, the medium was removed and cells were incubated for an additional 24 h with serial twofold dilutions of the lipopeptides in growth medium. Then, 10 µl of Alamar blue were added and plates were incubated for 3 h, after which fluorescence (excitation: 530 nm; emission: 590 nm) of the reduced resazurin was recorded (BioTek Instruments Synergy HT; Winooski, VT, USA)."}}, "note": "Where a SMILES comes first, the peptide text is derived from it. [ ]: non-standard residue; d: D form. The star is where a group is joined. 12Ado = NCCCCCCCCCCCC(=O)O; Decanoyl = CCCCCCCCCC(=O)*; Dab = NCC[C@H](N)C(=O)O", "data": [{"smiles": "CCCCCCCCCC(=O)N[C@@H](CCN)C(=O)N[C@@H](CCN)C(=O)NCCCCCCCCCCCC(=O)N[C@@H](CCN)C(N)=O", "note": "[C10BBc12B, decanoyl-bis.diaminobutyrate-aminododecanoyl-diaminobutyrate-amide] (Decanoyl-[Dab][Dab][12Ado][Dab]-NH2)", "values": [{"measurement": "relationship with EPI PAβN in rifampin potentiation", "setting": "E. coli 25922 [1]; 10 µM C10BBc12B ± 5 µg/ml PAβN, SF for rifampin", "value": "antagonistic relationship"}, {"measurement": "sensitization efficiency to rifampin", "setting": "E. coli 25922 [1]; E. coli, from isobologram data", "value": "65,000 folds"}, {"measurement": "survival rate, monotherapy", "setting": "E. coli 25922 [2]; 1.7 × 10^6 CFU/mouse, […] C10BBc12B S.C. 1 h post-infection or 20 mg/kg rifampin oral gavage", "value": 40, "unit": "%"}, {"measurement": "efficacy, monotherapy, higher inoculum", "setting": "E. coli 25922 [2]; 1.9 × 10^6 CFU/mouse, […] C10BBc12B S.C. or 20 mg/kg rifampin oral", "value": "virtually no efficacy"}, {"measurement": "mice mortality after infection with bacteria pre-treated with lipopeptide", "setting": "E. coli 25922 [2]; modified model, 1.4 × 10^6 CFU/mouse pre-treated 15 min with 10 µM in PBS, I.P., three days", "value": "delayed the onset of mice mortality and reduced the overall lethality rate"}, {"measurement": "bladder bacterial load", "setting": "UPEC CFT073; 24 h post-infection, 2 mg/kg rifampin, 7.5 mg/kg q.i.d. C10BBc12B or both, n = 5", "value": "no reduction in bacterial load"}, {"measurement": "efficacy of single dose regimen", "setting": "UPEC CFT073; single dose 7.5 or […] 1 h post infection, alone or in combination with rifampin", "value": "essentially ineffective"}, {"measurement": "MIC K. pneumoniae (n=2)", "setting": "K. pneumoniae", "value": "> 50", "unit": "µM"}, {"measurement": "IC50", "setting": "HEK-293FT", "value": "> 50", "unit": "µM"}]}]}
